Like-named read-outs stand apart in the source and are kept apart here.
Columns and labels:
A. ureafaciens sialidase [1] = molecular target: T1, A. ureafaciens sialidase (Paenarthrobacter ureafaciens, UniProt Q5W7Q2); experiment: Sialidase inhibition assay; format: biochemical, Arthrobacter ureafaciens; conditions: read-out: Percentage inhibition, A. ureafaciens
[2] = molecular target: C. perfringens sialidase (CpNanI) (Clostridium perfringens, UniProt A0A0H2YQR1); experiment: biochemical
SpNanA [3] = molecular target: T2, SpNanA (Streptococcus pneumoniae, UniProt P62575); experiment: biochemical
SpNanB = SpNanB (Streptococcus pneumoniae serotype 4, UniProt Q54727); experiment: biochemical; conditions: for inhibition at 100 µM / inhibition at 1000 µM: read-out: Percentage inhibition, SpNanB
SpNanC [4] = molecular target: T3, SpNanC (Streptococcus pneumoniae, UniProt A0A0H2UQE4); experiment: biochemical; conditions: for inhibition at 100 µM / inhibition at 1000 µM: read-out: Percentage inhibition, SpNanC
V. cholerae sialidase [5] = molecular target: T4, V. cholerae sialidase (Vibrio cholerae serotype O1, UniProt P0C6E9); experiment: biochemical; format: biochemical
BiNanH2 [6] = molecular target: T5, BiNanH2 (Bifidobacterium longum subsp. infantis, UniProt A0ACD7UU12); experiment: biochemical; format: biochemical, Bifidobacterium longum subsp. infantis ATCC15697
PmST1 [7] = molecular target: T6, PmST1 (Pasteurella multocida, UniProt Q15KI8); experiment: biochemical; conditions: for inhibition at 100 µM / inhibition at 1000 µM: read-out: Percentage inhibition, PmST1
hNEU2 [8] = molecular target: T7, hNEU2 (Homo sapiens, UniProt Q9Y3R4); experiment: Sialidase inhibition assay; format: biochemical; conditions: read-out: Percentage inhibition, hNEU2
[9] = tested on: C. perfringens sialidase CpNanI; format: biochemical, Clostridium perfringens; conditions: inhibitor:sialidase 2:1 molar ratio, 23 °C; for sensitivity of CpNanI to the covalent inhibitor in the time course study: Figures 2A, S2A
V. cholerae sialidase [10] = molecular target: T4, V. cholerae sialidase; format: biochemical; conditions: inhibitor:sialidase 2:1 molar ratio; 23 °C
SpNanA [11] = molecular target: T2, SpNanA; format: biochemical; conditions: inhibitor:sialidase 2:1 molar ratio, 23 °C
BiNanH2 [12] = molecular target: T5, BiNanH2; format: biochemical, Bifidobacterium longum subsp. infantis ATCC15697; conditions: inhibitor:sialidase 2:1 molar ratio, 23 °C
hNEU2 [13] = molecular target: T7, hNEU2; format: biochemical; conditions: inhibitor:sialidase 2:1 molar ratio; 23 °C; Figures 2E, S2E
A. ureafaciens sialidase [14] = molecular target: T1, A. ureafaciens sialidase; conditions: read-out: IC50, A. ureafaciens; substrate Neu5Acα2–3GalβpNP; ref [47]; cited from earlier work
SpNanC [15] = molecular target: T3, SpNanC; conditions: read-out: IC50, SpNanC; substrate Neu5Acα2–3GalβpNP; ref [25]; cited from earlier work
PmST1 [16] = molecular target: T6, PmST1; conditions: read-out: IC50, PmST1; substrate Neu5Acα2–3GalβpNP; ref [25]; cited from earlier work
[17] = read-out: Percentage inhibition, C. perfringens
[18] = read-out: Percentage inhibition, SpNanA
[19] = read-out: Percentage inhibition, V. cholerae
[20] = read-out: Percentage inhibition, BiNanH2

T4 sequence (P0C6E9 25-781): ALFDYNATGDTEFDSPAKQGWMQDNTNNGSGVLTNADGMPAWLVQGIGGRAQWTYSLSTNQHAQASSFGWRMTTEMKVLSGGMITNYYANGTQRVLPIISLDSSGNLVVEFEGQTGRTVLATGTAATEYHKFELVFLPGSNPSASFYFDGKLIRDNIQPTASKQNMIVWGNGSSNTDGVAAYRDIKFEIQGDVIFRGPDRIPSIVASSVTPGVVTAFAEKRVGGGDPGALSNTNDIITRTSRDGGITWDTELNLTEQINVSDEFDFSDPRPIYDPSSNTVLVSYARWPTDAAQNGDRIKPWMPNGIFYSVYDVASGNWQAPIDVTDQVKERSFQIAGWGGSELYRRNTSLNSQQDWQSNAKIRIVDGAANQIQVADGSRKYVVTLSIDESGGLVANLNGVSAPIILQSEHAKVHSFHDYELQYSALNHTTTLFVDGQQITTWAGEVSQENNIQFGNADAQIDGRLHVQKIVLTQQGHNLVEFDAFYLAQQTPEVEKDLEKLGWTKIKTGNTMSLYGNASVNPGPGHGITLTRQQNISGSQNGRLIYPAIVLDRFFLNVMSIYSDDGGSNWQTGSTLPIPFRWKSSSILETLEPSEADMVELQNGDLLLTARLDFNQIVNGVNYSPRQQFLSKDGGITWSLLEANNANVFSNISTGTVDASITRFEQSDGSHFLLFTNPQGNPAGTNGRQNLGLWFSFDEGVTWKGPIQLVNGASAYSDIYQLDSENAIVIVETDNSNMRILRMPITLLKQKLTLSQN
T2 sequence (P62575 54-1035): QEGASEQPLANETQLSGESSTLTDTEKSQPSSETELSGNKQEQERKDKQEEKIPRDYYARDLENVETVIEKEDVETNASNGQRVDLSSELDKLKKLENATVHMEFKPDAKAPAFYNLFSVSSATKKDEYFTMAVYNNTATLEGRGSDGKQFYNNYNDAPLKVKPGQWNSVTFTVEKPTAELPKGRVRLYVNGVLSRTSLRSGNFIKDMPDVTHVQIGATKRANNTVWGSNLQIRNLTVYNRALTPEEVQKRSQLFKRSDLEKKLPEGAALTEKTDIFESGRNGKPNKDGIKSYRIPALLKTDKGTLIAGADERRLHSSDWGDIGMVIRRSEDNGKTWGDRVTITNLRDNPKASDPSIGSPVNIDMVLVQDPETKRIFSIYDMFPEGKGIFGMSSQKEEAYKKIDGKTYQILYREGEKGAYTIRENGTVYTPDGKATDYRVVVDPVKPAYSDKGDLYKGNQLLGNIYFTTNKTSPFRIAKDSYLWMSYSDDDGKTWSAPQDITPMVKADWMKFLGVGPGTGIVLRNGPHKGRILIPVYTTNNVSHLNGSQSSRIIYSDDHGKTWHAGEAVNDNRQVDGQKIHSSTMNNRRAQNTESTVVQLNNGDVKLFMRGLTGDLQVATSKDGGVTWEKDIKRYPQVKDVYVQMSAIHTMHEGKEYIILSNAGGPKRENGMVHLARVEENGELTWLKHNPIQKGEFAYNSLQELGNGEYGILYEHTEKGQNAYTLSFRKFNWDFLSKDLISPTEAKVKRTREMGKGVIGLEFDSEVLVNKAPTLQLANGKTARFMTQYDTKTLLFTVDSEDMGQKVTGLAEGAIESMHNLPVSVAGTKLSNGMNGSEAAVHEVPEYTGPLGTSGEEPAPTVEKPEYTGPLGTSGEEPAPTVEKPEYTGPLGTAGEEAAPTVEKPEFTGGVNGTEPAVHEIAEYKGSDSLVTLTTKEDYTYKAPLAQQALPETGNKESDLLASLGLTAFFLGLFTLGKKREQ
C. perfringens sialidase (CpNanI), sequence (A0A0H2YQR1 27-694 limits assumed): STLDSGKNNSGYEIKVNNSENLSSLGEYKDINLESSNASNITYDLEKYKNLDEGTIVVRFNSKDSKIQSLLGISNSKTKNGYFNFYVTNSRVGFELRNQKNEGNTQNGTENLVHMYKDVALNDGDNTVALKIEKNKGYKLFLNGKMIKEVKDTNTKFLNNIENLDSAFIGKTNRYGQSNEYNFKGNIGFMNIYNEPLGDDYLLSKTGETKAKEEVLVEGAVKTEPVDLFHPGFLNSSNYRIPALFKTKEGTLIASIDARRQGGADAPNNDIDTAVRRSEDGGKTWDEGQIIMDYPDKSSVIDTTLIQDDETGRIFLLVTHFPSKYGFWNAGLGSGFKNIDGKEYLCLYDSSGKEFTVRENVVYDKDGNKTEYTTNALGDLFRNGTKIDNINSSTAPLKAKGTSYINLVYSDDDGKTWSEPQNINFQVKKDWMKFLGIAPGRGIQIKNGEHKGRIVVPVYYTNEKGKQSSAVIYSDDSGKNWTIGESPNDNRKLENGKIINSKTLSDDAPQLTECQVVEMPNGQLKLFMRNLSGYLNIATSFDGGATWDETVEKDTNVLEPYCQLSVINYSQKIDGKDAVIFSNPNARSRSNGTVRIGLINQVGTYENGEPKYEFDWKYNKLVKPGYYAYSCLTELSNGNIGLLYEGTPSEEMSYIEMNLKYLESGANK
SpNanB, sequence (Q54727 30-697): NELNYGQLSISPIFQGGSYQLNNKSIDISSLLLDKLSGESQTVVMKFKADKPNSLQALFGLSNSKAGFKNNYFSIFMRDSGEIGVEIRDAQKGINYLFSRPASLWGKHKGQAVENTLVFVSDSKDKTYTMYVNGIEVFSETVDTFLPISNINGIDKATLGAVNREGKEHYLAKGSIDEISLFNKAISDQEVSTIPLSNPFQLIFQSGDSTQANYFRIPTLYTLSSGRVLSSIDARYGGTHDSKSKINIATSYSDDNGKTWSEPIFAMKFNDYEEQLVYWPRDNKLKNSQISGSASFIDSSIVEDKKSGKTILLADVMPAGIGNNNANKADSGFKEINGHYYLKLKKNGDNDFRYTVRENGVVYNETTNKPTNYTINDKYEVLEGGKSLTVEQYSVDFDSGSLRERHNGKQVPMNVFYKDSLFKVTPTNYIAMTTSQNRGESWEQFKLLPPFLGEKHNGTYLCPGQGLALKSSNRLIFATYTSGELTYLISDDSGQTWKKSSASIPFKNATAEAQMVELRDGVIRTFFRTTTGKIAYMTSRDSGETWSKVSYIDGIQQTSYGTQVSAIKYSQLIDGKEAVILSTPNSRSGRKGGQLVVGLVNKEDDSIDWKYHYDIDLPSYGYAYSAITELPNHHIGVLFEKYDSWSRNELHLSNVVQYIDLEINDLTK
T7 sequence (Q9Y3R4 whole entry): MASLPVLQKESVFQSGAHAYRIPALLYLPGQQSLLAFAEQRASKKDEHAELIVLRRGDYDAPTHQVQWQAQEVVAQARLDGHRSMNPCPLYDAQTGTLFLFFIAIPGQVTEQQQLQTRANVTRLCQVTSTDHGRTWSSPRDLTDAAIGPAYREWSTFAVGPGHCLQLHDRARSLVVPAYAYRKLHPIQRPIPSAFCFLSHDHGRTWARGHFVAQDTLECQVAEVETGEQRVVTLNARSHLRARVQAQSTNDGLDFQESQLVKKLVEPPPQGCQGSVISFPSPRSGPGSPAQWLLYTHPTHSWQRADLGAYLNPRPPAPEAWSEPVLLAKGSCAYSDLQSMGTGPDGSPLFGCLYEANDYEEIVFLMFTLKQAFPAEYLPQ

SMILES	inhibition at 100 µM (A. ureafaciens sialidase [1]) [%]	IC50 [2] [µM]	inhibition at 100 µM [2, 17] [%]	IC50 (SpNanA [3]) [µM]	inhibition at 100 µM (SpNanA [3]; [18]) [%]	IC50 (SpNanB) [mM]	inhibition at 100 µM (SpNanB) [%]	inhibition at 1000 µM (SpNanB) [%]	inhibition at 100 µM (SpNanC [4]) [%]	inhibition at 1000 µM (SpNanC [4]) [%]	IC50 (V. cholerae sialidase [5]) [nM]	inhibition at 100 µM (V. cholerae sialidase [5]; [19]) [%]	inhibition at 100 µM (BiNanH2 [6]; [20]) [%]	IC50 (PmST1 [7]) [mM]	inhibition at 100 µM (PmST1 [7]) [%]	inhibition at 1000 µM (PmST1 [7]) [%]	inhibition at 100 µM (hNEU2 [8]) [%]	further results
CC(=O)N[C@@H]1[C@@H](O)[C@@H](F)[C@](F)(C(=O)O)O[C@H]1[C@H](O)[C@H](O)CN=[N+]=[N-] [Compound 6, 5-Acetamido-9-azido-2,3,5,9-tetradeoxy-3-fluoro-D-erythro-α-L-manno-non-2-ulopyranosylonic fluoride]	99.9 ± 0.1	0.024	99.9 ± 0.1	0.033	99.9 ± 0.1	> 1	16.7 ± 1.6	43.8 ± 1.4	< 1	83.7 ± 3.5	180	99.9 ± 0.6	98.8 ± 2.2	> 1	< 1	6 ± 0.4	1.5 ± 0.3	IC50 for V. cholerae sialidase better than that for hNEU2 (V. cholerae sialidase [5]; selectivity V. cholerae sialidase versus hNEU2): at least 500 fold; IC50 for BiNanH2 better than that for hNEU2 (BiNanH2 [6]; selectivity BiNanH2 versus hNEU2): at least 500 fold; inhibition at 1000 µM (hNEU2 [8]): 53.4 ± 1.3%; time for de-activation of CpNanI [9]: < 10 min; sensitivity of CpNanI to the covalent inhibitor in the time course study [9]: sensitive; time for de-activation of V. cholerae sialidase (V. cholerae sialidase [10]): < 10 min; time for de-activation of SpNanA (SpNanA [11]): < 10 min; sensitivity of SpNanA to the covalent inhibitor in the time course study (SpNanA [11]; Figures 2C, S2C): sensitive; time for de-activation of BiNanH2 (BiNanH2 [12]): < 10 min; sensitivity of BiNanH2 to the covalent inhibitor in the time course study (BiNanH2 [12]; Figures 2D, S2D): sensitive; sensitivity of hNEU2 to the covalent inhibitor in the time course study (hNEU2 [13]): except for hNEU2
[N-]=[N+]=N[C@@H]1[C@@H](O)[C@H](F)[C@](F)(C(=O)O)O[C@H]1[C@H](O)[C@H](O)CO [Compound 3, 5-Azido-2,3,5-trideoxy-3-fluoro-D-erythro-α-L-gluco-non-2-ulopyranosylonic fluoride]	75.2 ± 0.2	> 1000	29.8 ± 1.2	> 1000	< 1	> 1	35.1 ± 0.8	38 ± 0.9	< 1	6.5 ± 0.8		25 ± 1	40.8 ± 3.4	> 1	< 1	7.8 ± 0.3	37.5 ± 1.2	inhibition at 1000 µM [2, 17]: 30 ± 0.8%; inhibition at 1000 µM (SpNanA [3]; [18]): 29.6 ± 0.9%; inhibition at 1000 µM (V. cholerae sialidase [5]; [19]): 76.6 ± 4.6%; inhibition at 1000 µM (BiNanH2 [6]; [20]): 85.6 ± 0.5%; inhibition at 1000 µM (hNEU2 [8]): 80.7 ± 1.2%
CC(=O)N[C@@H]1[C@@H](O)[C@H](F)[C@](F)(C(=O)O)O[C@H]1[C@H](O)[C@H](O)CN=[N+]=[N-] [Compound 2, 5-Acetamido-9-azido-2,3,5,9-tetradeoxy-3-fluoro-D-erythro-α-L-gluco-non-2-ulopyranosylonic fluoride]	99.9 ± 0.2	0.73	99.9 ± 0.1	0.21	85.8 ± 0.7		26.8 ± 0.2	51.9 ± 2.2	< 1	53.9 ± 0.1	730	99.2 ± 0.5	98.9	> 1	< 1	9.3 ± 2.3	82.3 ± 2.8	sensitivity of CpNanI to the covalent inhibitor in the time course study [9]: also sensitive
CC(=O)N[C@@H]1[C@@H](O)[C@@H](F)[C@](F)(C(=O)O)O[C@H]1[C@H](O)[C@H](O)CO [Compound 5, 5-Acetamido-2,3,5-trideoxy-3-fluoro-D-erythro-α-L-manno-non-2-ulopyranosylonic fluoride]	99.9 ± 0.2	0.18	99.9 ± 0.1	0.13	99.9 ± 0.1	> 1	12 ± 0.2	19 ± 0.2	< 1	55.2 ± 0.4	330	96.8 ± 1.4	98.9 ± 0.5	> 1	< 1	3 ± 0.6	69.7 ± 0.4	
CC(=O)N[C@H]1[C@H]([C@H](O)[C@H](O)CO)OC(C(=O)O)=C[C@@H]1O [Neu5Ac2en, 2-deoxy-2,3-didehydro-N-acetylneuraminic acid]																		IC50 (A. ureafaciens sialidase [14]): 8.1 ± 0.3 µM; IC50 (SpNanC [15]): > 1 mM; IC50 (PmST1 [16]): > 1 mM
O=C(CO)N[C@@H]1[C@@H](O)[C@H](F)[C@](F)(C(=O)O)O[C@H]1[C@H](O)[C@H](O)CO [Compound 4, 5-glycolamido-2,3,5-trideoxy-3-fluoro-D-erythro-α-L-gluco-non-2-ulopyranosylonic fluoride]	96.1 ± 0.6		71.6 ± 1.2		78.4 ± 0.5	> 1	25.3 ± 1.7	26 ± 4.9	< 1	5.5 ± 0.2	1600 ± 100	97.8 ± 0.1	87.3 ± 0.8	> 1	< 1	22.4 ± 0.1	80.4 ± 1.3	
CC(=O)N[C@@H]1[C@@H](O)[C@H](F)[C@](F)(C(=O)O)O[C@H]1[C@H](O)[C@H](O)CO [Compound 1, 5-Acetamido-2,3,5-trideoxy-3-fluoro-D-erythro-α-L-gluco-non-2-ulopyranosylonic fluoride]	99.2 ± 0.3		80.6 ± 0.7		99.7 ± 0.3	> 1	11.8 ± 1	30.2 ± 2.2	< 1	25.1 ± 6.1	2000 ± 100	97.7 ± 0.3	95.4 ± 0.9	> 1	< 1	4.3 ± 0.1	75.4 ± 0.6	IC50 (SpNanC [4]; read-out: IC50, SpNanC): > 1 mM

— paper PMC6660241 (The Journal of organic chemistry, 2019)
